Values quoted from earlier work in US9452178B1, “Acne formulations, treatments, and pressure sensitive patches for delivery of acne formulations” (SatisPharma, LLC, priority 2014, dated 2016).

Details: complex with polyvinylpyrrolidone; publication by Rhein et al

## O=C(O)c1ccccc1O [salicylic acid]
  permeation through the epidermis: prevents its permeation through the epidermis
